{
  "source": "patent US20230165836A1",
  "about": "“ALPHA-2 ADRENERGIC RECEPTOR AGONISTS FOR THE TREATMENT OF CANCER” (UNIVERSITÉ CATHOLIQUE DE LOUVAIN, priority 2020, published 2023)",
  "key": {"renal cancer": {"tested_on": "renal cancer", "assay": "Tumor model: renal cancer", "type": "in vivo, mice", "conditions": "renal cancer (FIG. 22G, 23G)", "description": "(§1) FIGS. 23A-H is a set of curves showing the tumor growth of mice treated with PBS (Control, circles) or guanabenz (GBZ, triangles) in different tumor models: such as mammary gland tumor (FIG. 23A), hepatocellular carcinoma (FIG. 23B), T cell lymphoma (FIG. 23C), lung cancer (FIG. 23D), myeloma (FIG. 23E), mammary adenocarcinoma (FIG. 23F), renal cancer (FIG. 23G) and fibrosarcoma (FIG. 23H)."}, "T cell lymphoma": {"tested_on": "T cell lymphoma", "assay": "Tumor model: T cell lymphoma", "type": "in vivo, mice", "conditions": "T cell lymphoma (FIG. 22C, 23C)", "description": "as §1"}, "fibrosarcoma": {"tested_on": "fibrosarcoma", "assay": "Tumor model: fibrosarcoma", "type": "in vivo, mice", "conditions": "fibrosarcoma (FIG. 22H, 23H)", "description": "as §1"}, "mammary adenocarcinoma": {"tested_on": "mammary adenocarcinoma", "assay": "Tumor model: mammary adenocarcinoma", "type": "in vivo, mice", "conditions": "mammary adenocarcinoma (FIG. 22F, 23F)", "description": "as §1"}, "JAK2V617F allele burden": {"tested_on": "JAK2V617F allele burden", "assay": "Myelofibrosis by JAK2V617F bone marrow transplantation, allele burden", "type": "in vivo, C57BL/6 mice", "conditions": "5 mg/kg i.p. daily; Day 7 versus Day 0", "description": "Bone marrow from primary CD45.2 JAK2V617F mice was mixed 1:1 with CD45.1 C57BL/6 marrow and transplanted into lethally irradiated CD45.2 C57BL/6 recipients. 1 month after bone marrow transplantation, mice were randomized into three groups and received daily i.p injection of 5 mg/kg of clonidine, guanabenz or PBS. Blood was taken on Day 0 (Just before the treatment) and on Day 7 (7 days after the treatment). The allele burden was assessed as a fraction of CD45.2 cells along total CD45 cells in the blood of mice.\nDecreased JAK2V617F allele burden is a golden standard method to evaluate the disease progression of MF."}, "lung cancer": {"tested_on": "lung cancer", "assay": "Tumor model: lung cancer", "type": "in vivo, mice", "conditions": "lung cancer (FIG. 22D, 23D)", "description": "as §1"}},
  "data": [
    {"smiles": "Clc1cccc(Cl)c1N=C1NCCN1", "note": "[clonidine]", "values": [
      {"measurement": "tumor growth", "setting": "renal cancer", "value": "strong tumor inhibition"},
      {"measurement": "tumor growth", "setting": "T cell lymphoma", "value": "strong tumor inhibition"},
      {"measurement": "tumor growth", "setting": "fibrosarcoma", "value": "strong tumor inhibition"},
      {"measurement": "tumor growth", "setting": "mammary adenocarcinoma", "value": "strong tumor inhibition"},
      {"measurement": "JAK2V617F allele burden (CD45.2 cells among total CD45 cells in blood)", "setting": "JAK2V617F allele burden", "value": "decrease of JAK2V617F allele burden in a number of mice"},
      {"measurement": "tumor growth", "setting": "lung cancer", "value": "strong tumor inhibition"}
    ]}
  ]
}
